These results are taken from patent US7671077B2, “Neuroprotective small organic molecules, compositions and uses related thereto” (priority 2004, dated 2010).

pEC50: −log10 of the molar value.

This data set concerns midbrain dopaminergic neurons. Nature of the data set: Dopamine (DA) uptake assay in primary midbrain cultures. Particulars: for activity at 1.25 µM: compound concentration 1.25 μM; for activity at 20 µM: compound concentration 20 μM; for activity at 5 µM: compound concentration 5 μM; for activity at 2.5 µM: compound concentration 2.5 μM. It counts as cell-based, rat. The protocol:
Primary midbrain cultures were prepared from rat embryo ventral mesencephalon as described previously by Lin et al (1994). In brief, rostral mesencephalic tegmentum of embryonic day 16 rat embryos was collected in DMEM/F12 (Hyclone SH30023.01) containing 2 mM glutamine on ice, The tissue was treated with 0.1% trypsin in Hanks' balanced salt solution (HBSS, Gibco 14175-095) for 15 min at 37° C. and dissociated mechanically by mild trituration with a fire-polished glass pipet in growth medium plus 2% heat-inactivated fetal bovine serum (FBS). The growth medium consisted of equal volumes of Dulbecco's minimal essential medium DMEM (Gibco 12100-046) and HAM's F12 nutrient mixture (Gibco 21700-075) supplemented with 33 mM glucose, 13 mM sodium bicarbonate, 5 mM HEPES, 2 mM glutamine, 25 μg/ml insulin, 100 μg/ml transferrin, 60 μM putrescine, 20 nM progesterone, 30 nM sodium selenite, 5 U/ml penicillin G and 5 μg/ml streptomycin. 24-well tissue culture plate was coated by adding 15 μg/ml poly-1-ornithine hydrobromide solution at 0.5 ml/well, incubated at room temperature for 1 hr. The coating solution was removed and the well washed 3 times with distilled water and one wash with HBSS. The dissociated cells were plated onto polyornithine-coated wells at 250,000-350,000 trypan blue-excluding viable cells per well in 500 μl of above medium containing 1% FBS. After 3 h when most of the cells had adhered to the bottom of the well, the medium was replaced with 500 μl of fresh medium without FBS. A serial dilution of the sample to be assayed for trophic activity was added to each well in duplicate at the time of medium change or within 24 h thereafter. Unless otherwise stated, cultures were incubated at 37° C. without any further medium change up to 7 days. Primary hindbrain cultures were prepared as described for the midbrain cultures except that the rostral raphe region (instead of the rostral mesencephalon) was dissected and trypsinized for 20 (instead of 15) min.
[^3H]DA uptake was measured in cultures at day 7, and all the solutions were maintained at 37° C. The growth medium was removed, and the cultures were rinsed twice with 0.25 ml of uptake buffer, which consists of HBSS (Gibco 11201-092) supplemented with 28 mM glucose, 15 mM HEPES, 1 mM ascorbic acid (an antioxidant), and […] pargyline (a monoamine oxidase inhibitor). The cultures were then incubated with 0.25 ml of fresh uptake buffer containing 50 nM [^3H]DA (NEN/DuPont) for 20 min at 37° C. [^3H]DA uptake was stopped by removing the incubation mixture, and cells were then washed twice with 0.5 ml of the uptake buffer at room temperature. To release [^3H]DA from the cells, the cultures were lysed with 0.2 ml of 0.1 N NaOH for 1 h at room temperature, the lysate was then added to 1 ml of Microscint-20 (Packard 6013621), and counted for radioactivity in a microplate scintillation counter (Packard TopCount, NXT). Background values were obtained by adding to the uptake buffer 0.5 mM GBR-12909, a specific inhibitor of the high-affinity uptake pump of the dopaminergic neurons, and were usually <5% of the ^3H uptake in untreated control cultures. Forskolin (Fk, 25 μM) was employed as a positive control.

Where [1] appears, read: Rattus norvegicus, Neuron, midbrain culture, read-out: DA uptake % of control.

`O=C(/C=C/c1ccc(Br)cc1)Nc1ccc(S(=O)(=O)Nc2nc[nH]n2)cc1` [X′]: the “cytotoxicity in midbrain culture” value (20 μM) is “no cytotoxicity”. Further, the activity at 0.6 µM (Rattus norvegicus, Neuron, compound concentration 0.6 μM, midbrain culture, read-out: DA uptake % of control) was found to be 290%. The pEC50 (Rattus norvegicus, Neuron, midbrain culture, FIG. 36, read-out: half-maximal effective concentration (EC50) for DA uptake stimulation) was approximately 6.70.
For the molecule `Cc1ccnc(NS(=O)(=O)c2ccc(NC(=O)/C=C/c3cccc(Cl)c3)cc2)n1` [S], the activity at 1.4 µM (Rattus norvegicus, Neuron, compound concentration 1.4 μM, midbrain culture, read-out: DA uptake % of control) came to 220%.
On to `O=C(/C=C/c1cc(C(F)(F)F)ccc1C(F)(F)F)Nc1ccc(S(=O)(=O)Nc2nccs2)cc1` [X″], for which the activity at 1.25 µM under setting [1] turned out to be 245%.
On to `O=C(/C=C/c1ccccc1)Nc1ccc(S(=O)(=O)Nc2ccccn2)cc1` [G′′′], for which the activity at 20 µM under setting [1] worked out at 180%.
On to `COc1ccc(/C=C/C(=O)Nc2ccc(S(=O)(=O)Nc3nccs3)cc2)cc1` [I′′′], for which the activity at 5 µM under setting [1] was 140%.
Turning to `COc1cccc(/C=C/C(=O)Nc2ccc(S(=O)(=O)Nc3nccs3)cc2)c1` [J′′′], the activity at 2.5 µM under setting [1] stood at 140%.
As for `O=C(/C=C/c1ccc(Cl)cc1Cl)Nc1ccc(S(=O)(=O)Nc2nccs2)cc1` [V″], the activity at 0.3 µM (Rattus norvegicus, Neuron, compound concentration 0.3 μM, midbrain culture, read-out: DA uptake % of control) was 250%.
On to `O=C(Nc1ccc(S(=O)(=O)Nc2nccs2)cc1)c1cc2ccccc2oc1=O` [F′′′′], for which the activity at 0.25 µM (Rattus norvegicus, Neuron, compound concentration 0.25 μM, midbrain culture, read-out: DA uptake % of control) was 160%.
In the case of `O=C(/C=C/c1ccccc1Cl)Nc1ccc(S(=O)(=O)Nc2ccccn2)cc1` [F″], the activity at 2.5 µM under setting [1] came to 180%.
In the case of `O=C(/C=C/c1ccccc1C(F)(F)F)Nc1ccc(S(=O)(=O)Nc2nccs2)cc1` [M″], the activity at 1.25 µM under setting [1] turned out to be 280%.
As for `C/C(O)=C\C(=N)NS(=O)(=O)c1ccc(NC(=O)/C=C/c2ccccc2)cc1` [X′′′], under setting [1], the activity at 5 µM worked out at 140%.
Consider `O=C(/C=C/c1ccccc1I)Nc1ccc(S(=O)(=O)Nc2nccs2)cc1` [Z″], for which the activity at 1.25 µM under setting [1] came to 300%.
In the case of `Cc1ccc(C)c(/C=C/C(=O)Nc2ccc(S(=O)(=O)Nc3nccs3)cc2)c1` [J″], the activity at 1.25 µM under setting [1] worked out at 320%.
Take `O=C(/C=C/c1ccc(F)cc1)Nc1ccc(S(=O)(=O)Nc2nccs2)cc1` [O]: the activity at 20 µM under setting [1] is 240%.
As to `Cc1cc(NS(=O)(=O)c2ccc(NC(=O)/C=C/c3ccccc3Cl)cc2)no1` [B″], under setting [1], the activity at 5 µM came out at 180%.
In the case of `COc1cc(Br)c(/C=C/C(=O)Nc2ccc(S(=O)(=O)Nc3nccs3)cc2)cc1OC` [B′′′], the activity at 1.25 µM under setting [1] came to 260%.
As to `O=C(/C=C/c1ccoc1)Nc1ccc(S(=O)(=O)Nc2nccs2)cc1` [N″], the activity at 20 µM under setting [1] turned out to be 240%.
